Read-outs that look alike come from different tables or passages of the source.

The subject of test [1] is genotype A, "Long" strain RSV. Nature of the test: RSV-A assay (CPE protection in Hep-2 cells, ATPlite readout). Format: cell-based, Human respiratory syncytial virus (HRSV). The following applies: human respiratory syncytial virus, MOI 0.1, CPE protection. The method, boiled down:
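Hep-2 cells (8,000/well) infected with RSV Long strain at MOI 0.1 in the presence of 2-fold compound dilutions in duplicate. After 5 days, cell viability measured by ATPlite luminescence, normalized between virus-only and uninfected cell controls; EC50 reported.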
Background: In ATP-based viability assays light output follows the ATP content of the culture.

Test [2] concerns HMPV clinical isolate TN/1501/A1. Nature of the test: HMPV antiviral assay Method-B (clinical isolate TN/1501/A1 in LLC-MK2 cells, ATP-Lite readout). The format is cell-based, Human metapneumovirus (HMPV). The following applies: human metapneumovirus, LLC-MK2, 144 h, hMPV WT1501 (clinical isolate TN/1501/A1), 6 days. Put shortly:
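EC50 derived by four-parameter logistic fit of percent cell health, measured by ATP-Lite luminescence and normalised to virus-only and uninfected-cell controls. Compounds run in duplicate from 10 μM top, 3-fold, 10 points. Infection: LLC-MK2 cells, MOI 0.014, 2 μg/mL final TPCK-trypsin, serum-free, 6 days at 37° C.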

Where [3] appears, read: genotype A “Long” strain RSV, read-out: Human RSV-A (“Long”).
[4] abbreviates: RSV-A Long strain, read-out: Human RSV-A (“Long”) EC50.

On to `C[C@]1(C(N)=O)COc2c1cc([C@@](O)(CNC(=O)c1cc(Cl)c3nn(C4CC4)cc3c1)C1CC1)nc2-c1ccc(F)c(Br)c1F` [Example 800], for which the EC50 was below 200 nM in test [1] (setting [3]) and below 500 nM in test [2].

In the case of `COc1cc(C(=O)NC[C@](O)(c2cc3c(c(-c4ccc5nn(C(F)F)cc5c4)n2)OC[C@]3(C)C(N)=O)C(F)(F)F)cc2cn(C3CC3)nc12` [Example 938], the EC50 in test [1] (setting [4]) is above 200 nM; in test [2] it was above 500 nM.

As for `CNC(=O)[C@@]1(C)COc2c1cc([C@@](O)(CNC(=O)c1cc(OC)c3nn(C4CC4)cc3c1)C(F)(F)F)nc2-c1ccc(F)cc1` [Example 1190], the EC50 in test [1] (setting [4]) is below 200 nM; in test [2], below 500 nM.

As for `C[C@]1(C(N)=O)COc2c1cc([C@@](O)(CNC(=O)c1ccc3nn(C4CC4)cc3c1)C1CC1)nc2-c1ccc(F)c(Br)c1F` [Example 1101], the EC50 in test [1] (setting [4]) was below 200 nM; in test [2], below 500 nM.

As to `C[C@]1(C(N)=O)COc2c1cc([C@@](O)(CNC(=O)c1cc(Cl)c3nn(C4CC4)cc3c1)C1CC1)nc2-c1cc(F)c(F)c(Cl)c1` [Example 790], the EC50 in test [1] (setting [3]) is below 200 nM; in test [2], below 500 nM.

For `COc1cc(C(=O)NC[C@](O)(c2nc(-c3ccc4c(c3)OC(F)(F)O4)c3c(c2F)[C@@](C)(C(N)=O)CO3)C2CC2)cc2cn(C(F)F)nc12` [Example 860], the EC50 was below 200 nM in test [1] (setting [4]) and below 500 nM in test [2].

For the molecule `COc1cc(C(=O)NC[C@](O)(c2cc3c(c(-c4ccc(F)c(F)c4F)n2)OC[C@]3(C)C(N)=O)C(F)(F)F)cc2cc(Br)cnc12` [Example 520], the EC50 in test [1] (setting [3]) was below 200 nM; in test [2], below 500 nM.

In the case of `COc1cc(C(=O)NC[C@](O)(c2cc3c(c(-c4ccc(F)cc4F)n2)OC[C@]3(C)C(N)=O)C(F)(F)F)cc2cn(C3CC3)nc12` [Example 901], the EC50 in test [1] (setting [4]) was below 200 nM; in test [2], below 500 nM.

In the case of `COc1cc(C(=O)NC[C@](O)(c2cc3c(c(-c4ccc(C(F)(F)F)c(Cl)c4)n2)OC[C@]3(C)C(N)=O)C(F)(F)F)cc2cn(C(F)F)nc12` [Example 580], the EC50 in test [1] (setting [3]) was below 200 nM; in test [2], above 500 nM.

Regarding `COc1cc(C(=O)NC[C@](O)(c2cc3c(c(-c4cnc(Cl)c(Cl)c4)n2)OC[C@]3(C)C(N)=O)C(F)(F)F)cc2cn(C(F)F)nc12` [Example 589], the EC50 was below 200 nM in test [1] (setting [3]) and above 500 nM in test [2].

`COc1cc(C(=O)NC[C@](O)(c2cc3c(c(-c4ccc(F)cc4)n2)OC[C@]3(C)C(N)=O)C(F)(F)F)cc2cc(Br)c(Cl)nc12` [Example 1090]: the EC50 in test [1] (setting [4]) is below 200 nM; in test [2], above 500 nM.

For `COc1cc(C(=O)NC[C@](O)(c2cc3c(c(-c4ccc(F)cc4)n2)OC[C@]3(C)C(N)=O)C2CC2)cc2cc(Cl)c(Cl)nc12` [Example 1105], the EC50 in test [1] (setting [4]) was below 200 nM; in test [2] it was above 500 nM.

As to `COc1cc(C(=O)NC[C@](O)(c2cc3c(c(-c4ccc(F)cc4)n2)OC[C@]3(CF)C(N)=O)C2CC2)cc2cn(C(F)F)nc12` [Example 1062], the figures for the EC50 in test [1] (setting [4]) and in test [2] were below 200 nM and below 500 nM, respectively.

With `COc1cc(C(=O)NC[C@](O)(c2cc3c(c(-c4cnc(Cl)c(Cl)c4)n2)OC[C@]3(C)C(N)=O)C(F)(F)F)cc2cn(C3CC3)nc12` [Example 587], the EC50 is below 200 nM in test [1] (setting [3]) and above 500 nM in test [2].

`COc1cc(C(=O)NC[C@](O)(c2cc3c(c(-c4ccc(F)c(F)c4F)n2)OC[C@]3(C(N)=O)C(F)F)C(F)(F)F)cc2cn(C3CC3)nc12` [Example 1038]: the EC50 is above 200 nM in test [1] (setting [4]) and above 500 nM in test [2].

Consider `C[C@]1(C(N)=O)COc2c1cc([C@@](O)(CNC(=O)c1cc(Cl)c3nn(C4CC4)cc3c1)C1CC1)nc2-c1ccc(F)c(Cl)c1F` [Example 559], for which the EC50 in test [1] (setting [3]) is below 200 nM; in test [2], below 500 nM.

With `COc1cc(C(=O)NC[C@@](O)(c2cc3c(c(-c4ccc(OC(F)F)cc4)n2)OC[C@]3(C)C(N)=O)C(F)(F)F)cc2cn(C3CC3)nc12` [Example 925], the values for the EC50 in test [1] (setting [4]) and in test [2] were below 200 nM and above 500 nM, respectively.

For the molecule `COc1cc(C(=O)NC[C@](O)(c2nc(-c3ccc4c(c3)OC(F)(F)O4)c3c(c2F)[C@@](C)(C(N)=O)CO3)C2CC2)cc2cn(C3(F)CC3)nc12` [Example 859], the EC50 in test [1] (setting [4]) is below 200 nM; in test [2], below 500 nM.

Consider `COc1cc(C(=O)NC[C@](O)(c2cc3c(c(-c4ccc(F)c(F)c4Cl)n2)OC[C@]3(C)C(N)=O)C2(F)CC2)cc2cn(C3CC3)nc12` [Example 745], for which the EC50 is below 200 nM in test [1] (setting [3]) and below 500 nM in test [2].

As for `Cc1cnc2c(OC(F)F)cc(C(=O)NC[C@](O)(c3cc4c(c(-c5ccc(F)c(Cl)c5F)n3)OC[C@]4(C)C(N)=O)C(F)(F)F)cc2c1` [Example 553], the EC50 was below 200 nM in test [1] (setting [3]) and below 500 nM in test [2].

In the case of `COc1cc(C(=O)NC[C@](O)(c2cc3c(c(-c4ccc(F)cc4)n2)OC[C@]3(C)C(N)=O)C(F)(F)F)cc2c(=O)n(C3CC3)[nH]c12` [Example 876], the EC50 in test [1] (setting [4]) is above 200 nM; in test [2], above 500 nM.

Regarding `COc1cc(-c2nc([C@@](O)(CNC(=O)c3cc(OC)c4nn(C5CC5)cc4c3)C(F)(F)F)cc3c2OC[C@]3(C)C(N)=O)cc2cn(C(F)F)nc12` [Example 942], the EC50 in test [1] (setting [4]) is above 200 nM; in test [2] it was above 500 nM.

Regarding `Cc1cnc2c(OC(F)F)cc(C(=O)NC[C@](O)(c3cc4c(c(-c5ccc(F)c(Cl)c5F)n3)OC[C@]4(C)C(N)=O)C3CC3)cc2c1` [Example 558], the EC50 in test [1] (setting [3]) is below 200 nM; in test [2], below 500 nM.

As for `COc1cc(C(=O)NC[C@](O)(c2cc3c(c(-c4ccc5[nH]ccc5c4)n2)OC[C@]3(C)C(N)=O)C(F)(F)F)cc2cn(C3CC3)nc12` [Example 969], the results for the EC50 in test [1] (setting [4]) and in test [2] were above 200 nM and above 500 nM, respectively.

Regarding `COc1cc(C(=O)NC[C@](O)(c2cc3c(c(-c4ccc(F)c(Cl)c4F)n2)OC[C@]3(C)C(N)=O)C(F)(F)F)cc2cn(C(F)F)nc12` [Example 551], the results for the EC50 in test [1] (setting [3]) and in test [2] were below 200 nM and below 500 nM, respectively.

Take `C[C@]1(C(N)=O)COc2c1cc([C@@](O)(CNC(=O)c1cc(F)c3nn(C4(F)CC4)cc3c1)C(F)(F)F)nc2-c1ccc(F)cc1` [Example 833]: the EC50 in test [1] (setting [4]) is below 200 nM; in test [2], above 500 nM.

Consider `Cc1cnc2c(OC(F)F)cc(C(=O)NC[C@](O)(c3cc4c(c(-c5ccc(F)cc5)n3)OC[C@]4(C(N)=O)C(F)F)C(F)(F)F)cc2c1` [Example 1006], for which the EC50 is above 200 nM in test [1] (setting [4]) and above 500 nM in test [2].

Turning to `COc1cc(C(=O)NC[C@](O)(c2cc3c(c(-c4csc(C(F)F)c4)n2)OC[C@]3(C)C(N)=O)C(F)(F)F)cc2cn(C3CC3)nc12` [Example 945], the values for the EC50 in test [1] (setting [4]) and in test [2] were below 200 nM and above 500 nM, respectively.

For the molecule `COc1cc(C(=O)NC[C@](O)(c2cc3c(c(-c4ccc(F)c(Cl)c4)n2)OC[C@@]3(C(N)=O)C(F)F)C2CC2)cc2cc(Cl)c(C)nc12` [Example 1033], the EC50 was below 200 nM in test [1] (setting [4]) and below 500 nM in test [2].

As to `C[C@]1(C(N)=O)COc2c1cc([C@@](O)(CNC(=O)c1ccc3nn(C4CC4)cc3c1)C1CC1)nc2-c1c(F)ccc(Cl)c1F` [Example 1167], the EC50 in test [1] (setting [4]) was below 200 nM; in test [2], below 500 nM.

Turning to `COc1cc(C(=O)NC[C@](O)(c2cc3c(c(-c4ccc(C(F)F)cc4)n2)OC[C@]3(C)C(N)=O)C(F)(F)F)cc2cn(C3CC3)nc12` [Example 896], the EC50 in test [1] (setting [4]) was below 200 nM; in test [2] it was above 500 nM.

(Values after patent US12612412B2, “Antiviral heterocyclic compounds” (Enanta Pharmaceuticals, Inc., priority 2021, dated 2026).)
